Results published in US20250319032A1, “PHARMACEUTICAL COMPOSITIONS OF RIBOCICLIB” (Novartis AG, priority 2024, published 2025).

Assay: Nitrite content (ion chromatography; LC-FLD with DAN derivatisation; Griess test) in drug substance, intermediates, reagents, solvents, filters, excipients
Type: physicochemical
Conditions: for Nitrite NAT enhanced sample prep. (ppm): ribociclib succinate drug substance batches at release
Description: The method of testing for the presence and/or total amount of nitrites that is used in the methods of the invention may be any method which allows for the detection and/or quantitation of nitrites in a composition. For example, the method may be the Griess test. The Griess test allows for the detection and analysis of nitrite by the formation of a red-pink colour upon treatment of a nitrite-containing sample with the Griess reagent. The Griess reagent consists of two components in an acidic solution: an aniline derivative and a coupling agent. The most common arrangements use sulfanilamide and N-(1-naphthyl)ethylenediamine. For example 0.2% N-(1-naphthyl)ethylenediamine dihydrochloride and 2% sulfanilamide in 5% phosphoric acid may be used as a Griess reagent. Other aniline derivatives that may be used in a Griess reagent include sulfanilic acid, nitroaniline, and p-aminoacetophenone.
The Griess test involves two subsequent reactions, as shown in the scheme below. When the aniline derivative (e.g., sulfanilamide) is added, the nitrite ion reacts with it in the Griess diazotization reaction to form a diazonium salt, which then reacts with N-(1-naphthyl)ethylenediamine in an azo-coupling reaction, forming a pink-red azo-dye. Using a spectrophotometer, the nitrite concentration can then be quantitatively detected.
Additionally purified water; e.g. Milli Q • 2.
• 10 mM KH2PO4 Weigh accurately about 1.361 g of KH2PO4 into a 1 L volumetric flask, dissolve it in approximately 950 mL of additionally purified water and adjust the pH to 8.0 (with 2.7 M NaOH). Make up to the mark with additionally purified water. • 0.62 M HCl Add a few millilitres (e.g. 20 mL) of additionally purified water to a 200 mL volumetric flask, add 10.280 mL of concentrated HCl, mix and make up to the mark with additionally purified water. • 2.7 M NaOH Weigh accurately about 1.092 g of NaOH pellets into a 10 mL volumetric flask and dissolve it in additionally purified water. Cool to room temperature and make up to the mark with the same solvent. • Reagent DAN Weigh accurately about 5 mg of 2,3-diaminophthalene into a 100 mL volumetric flask and dissolve it with the solvent (methanol/water 1:1 (v/v)). Dilute up to the mark and ensure visual full dissolution. Use an amberglass flask. • Mobile phase A Mix 950 mL of 10 mM KH2PO4 solution (pH=8) and add 50 mL methanol. • Mobile phase B Methanol. • Solvent Methanol/water 1:1 (v/v), e.g. mix 2000 mL of additionally purified water and 2000 mL methanol.
• Instrument: HPLC with FLR detector; e.g. Waters Arc or equivalent • Column: C18 50×4.6 mm, 2.5 μm, e.g. XBridge C18 2.5 μm, 4.650 mm or equivalent
• Notes It is recommended to wear additional protective equipment (face mask and gloves) during weighing. • It is recommended to wash the column with 50% methanol after the analysis (example of preparation: mix 500 mL methanol and 500 m1 of additionally purified water). • It is recommended to rinse the injector with solvent after each injection. • All glassware and tools should be rinsed with additionally purified water before use. It is not recommended to leave the solutions open for a longer time before measurement. • Blank solution 1 Transfer 1 mL of solvent into a HPLC vial and perform derivatization as described below. • Blank solution 2 Transfer 10 mL of solvent into a single use glass vial and mix it on a magnetic stirrer for 30 min. Transfer the solution into a 5 mL centrifuge tube and centrifuge for 10 min at 12000 rpm. […] Fill up to the mark with solvent and mix. • (Cnitrite≈0.0005 mg/mL) • Comparison solution Transfer 10 mL of nitrite stock solution into a 500 mL volumetric flask. • (2 parallels) Fill up to the mark with solvent and mix. • Transfer 1 mL solution into a HPLC vial and perform the derivatization as described below. • (Cnitrite≈100 ppb) • Sample solution Accurately weigh about 1000 mg of the sample into a glass vial for single use and add 10 mL of solvent.

Structure (SMILES): CN(C)C(=O)c1cc2cnc(Nc3ccc(N4CCNCC4)cn3)nc2n1C1CCCC1.O=C(O)CCC(=O)O [DS (B699003AA)]
- Nitrite content (component (DS or MgST) used in binary mixtures): DS 0.1 ppm

Structure (SMILES): CC(C)O [IPA]
- Nitrite in IPA (IPA used in resin loading experiments): 1.6 ppb

Structure (SMILES): CN(C)C(=O)c1cc2cnc(Nc3ccc(N4CCNCC4)cn3)nc2n1C1CCCC1.O=C(O)CCC(=O)O [RIBOCICLIB SUCCINATE 833268A144]
- Nitrite NAT enhanced sample prep. (ppm) (manufacturer Raybow - DS04): <0.1 ppm
- Nitrite NAT enhanced sample prep. (ppm) (manufacturer Raybow - DS05): <0.1 ppm

Structure (SMILES): CN(C)C(=O)c1cc2cnc(Nc3ccc(N4CCNCC4)cn3)nc2n1C1CCCC1.O=C(O)CCC(=O)O [RIBOCICLIB SUCCINATE 833268A193]
- Nitrite NAT enhanced sample prep. (ppm) (manufacturer Raybow - DS04): 0.1 ppm
- Nitrite NAT enhanced sample prep. (ppm) (manufacturer Raybow - DS05): 0.1 ppm

Structure (SMILES): CN(C)C(=O)c1cc2cnc(Nc3ccc(N4CCNCC4)cn3)nc2n1C1CCCC1.O=C(O)CCC(=O)O [RIBOCICLIB SUCCINATE 833268A196]
- Nitrite NAT enhanced sample prep. (ppm) (manufacturer Raybow - DS04): 1.1 ppm
- Nitrite NAT enhanced sample prep. (ppm) (manufacturer Raybow - DS05): 0.1 ppm

Structure (SMILES): CN(C)C(=O)c1cc2cnc(Nc3ccc(N4CCNCC4)cn3)nc2n1C1CCCC1.O=C(O)CCC(=O)O [RIBOCICLIB SUCCINATE 833268A198]
- Nitrite NAT enhanced sample prep. (ppm) (manufacturer Raybow - DS04): 0.1 ppm
- Nitrite NAT enhanced sample prep. (ppm) (manufacturer Raybow - DS05): 0.1 ppm

Structure (SMILES): CN(C)C(=O)c1cc2cnc(Nc3ccc(N4CCNCC4)cn3)nc2n1C1CCCC1.O=C(O)CCC(=O)O [RIBOCICLIB SUCCINATE 833268A201]
- Nitrite NAT enhanced sample prep. (ppm) (manufacturer Raybow - DS04): 0.1 ppm
- Nitrite NAT enhanced sample prep. (ppm) (manufacturer Raybow - DS05): 0.1 ppm

Structure (SMILES): CN(C)C(=O)c1cc2cnc(Nc3ccc(N4CCNCC4)cn3)nc2n1C1CCCC1.O=C(O)CCC(=O)O [RIBOCICLIB SUCCINATE 833268A202]
- Nitrite NAT enhanced sample prep. (ppm) (manufacturer Raybow - DS04): 0.1 ppm
- Nitrite NAT enhanced sample prep. (ppm) (manufacturer Raybow - DS05): 0.1 ppm

Structure (SMILES): CN(C)C(=O)c1cc2cnc(Nc3ccc(N4CCNCC4)cn3)nc2n1C1CCCC1.O=C(O)CCC(=O)O [RIBOCICLIB SUCCINATE 833268A207]
- Nitrite NAT enhanced sample prep. (ppm) (manufacturer Raybow - DS04): 0.1 ppm
- Nitrite NAT enhanced sample prep. (ppm) (manufacturer Raybow - DS05): 0.1 ppm

Structure (SMILES): CN(C)C(=O)c1cc2cnc(Nc3ccc(N4CCNCC4)cn3)nc2n1C1CCCC1.O=C(O)CCC(=O)O [RIBOCICLIB SUCCINATE 833268A211]
- Nitrite NAT enhanced sample prep. (ppm) (manufacturer Raybow - DS04): <0.1 ppm

Structure (SMILES): CN(C)C(=O)c1cc2cnc(Nc3ccc(N4CCNCC4)cn3)nc2n1C1CCCC1.O=C(O)CCC(=O)O [RIBOCICLIB SUCCINATE 833268A212]
- Nitrite NAT enhanced sample prep. (ppm) (manufacturer Raybow - DS04): <0.1 ppm

Structure (SMILES): CN(C)C(=O)c1cc2cnc(Nc3ccc(N4CCNCC4)cn3)nc2n1C1CCCC1.O=C(O)CCC(=O)O [RIBOCICLIB SUCCINATE 833268R008]
- Nitrite NAT enhanced sample prep. (ppm) (manufacturer Raybow - DS04): 0.3 ppm

Structure (SMILES): CN(C)C(=O)c1cc2cnc(Nc3ccc(N4CCNCC4)cn3)nc2n1C1CCCC1.O=C(O)CCC(=O)O [RIBOCICLIB SUCCINATE 833268R009]
- Nitrite NAT enhanced sample prep. (ppm) (manufacturer Raybow - DS04): <0.1 ppm

Structure (SMILES): CN(C)C(=O)c1cc2cnc(Nc3ccc(N4CCNCC4)cn3)nc2n1C1CCCC1.O=C(O)CCC(=O)O [RIBOCICLIB SUCCINATE 833268R010]
- Nitrite NAT enhanced sample prep. (ppm) (manufacturer Raybow - DS04): <0.1 ppm

Structure (SMILES): CN(C)C(=O)c1cc2cnc(Nc3ccc(N4CCNCC4)cn3)nc2n1C1CCCC1.O=C(O)CCC(=O)O [RIBOCICLIB SUCCINATE 833268R011]
- Nitrite NAT enhanced sample prep. (ppm) (manufacturer Raybow - DS04): <0.1 ppm

Structure (SMILES): CN(C)C(=O)c1cc2cnc(Nc3ccc(N4CCNCC4)cn3)nc2n1C1CCCC1.O=C(O)CCC(=O)O [RIBOCICLIB SUCCINATE 833268R012]
- Nitrite NAT enhanced sample prep. (ppm) (manufacturer Raybow - DS04): <0.1 ppm

Structure (SMILES): CN(C)C(=O)c1cc2cnc(Nc3ccc(N4CCNCC4)cn3)nc2n1C1CCCC1.O=C(O)CCC(=O)O [RIBOCICLIB SUCCINATE 833268R013]
- Nitrite NAT enhanced sample prep. (ppm) (manufacturer Raybow - DS04): <0.1 ppm

Structure (SMILES): CN(C)C(=O)c1cc2cnc(Nc3ccc(N4CCNCC4)cn3)nc2n1C1CCCC1.O=C(O)CCC(=O)O [RIBOCICLIB SUCCINATE 833268R014]
- Nitrite NAT enhanced sample prep. (ppm) (manufacturer Raybow - DS04): <0.1 ppm

Structure (SMILES): CN(C)C(=O)c1cc2cnc(Nc3ccc(N4CCNCC4)cn3)nc2n1C1CCCC1.O=C(O)CCC(=O)O [RIBOCICLIB SUCCINATE 833268R015]
- Nitrite NAT enhanced sample prep. (ppm) (manufacturer Raybow - DS04): <0.1 ppm

Structure (SMILES): CN(C)C(=O)c1cc2cnc(Nc3ccc(N4CCNCC4)cn3)nc2n1C1CCCC1.O=C(O)CCC(=O)O [RIBOCICLIB SUCCINATE 833268R016]
- Nitrite NAT enhanced sample prep. (ppm) (manufacturer Raybow - DS04): <0.1 ppm
